For experiment [1], the system named is JAK1-dependent STAT6 phosphorylation downstream of IL-13 stimulation in BEAS-2B cells. Briefly: JAK1 pathway assay in cell lines: IL-13 p-STAT6 BEAS-2B. Conditions: BEAS-2B human bronchial epithelial cells, 1 hr compound, IL-13 15 min, MSD readout. In kind it is cell-based. As to the method:
JAK1 Pathway Assay in Cell Lines was Carried Out as Follows:
Inhibitor potency (EC50) was determined in cell-based assays designed to measure JAK1 dependent STAT phosphorylation. As noted above, inhibition of IL-4, IL-13, and IL-9 signalling by blocking the Jak/Stat signaling pathway can alleviate asthmatic symptoms in pre-clinical lung inflammation models (Mathew et al., 2001, J Exp Med 193(9): 1087-1096; Kudlacz et. al., 2008, Eur J. Pharmacol 582(1-3): 154-161).
In one assay approach, TF-1 human erythroleukemia cells obtained from the American Type Culture Collection (ATCC; Manassas, Va.) were used to measure JAK1-dependent STAT6 phosphorylation downstream of IL-13 stimulation. Prior to use in the assays, TF-1 cells were starved of GM-CSF overnight in OptiMEM medium (Life Technologies, Grand Island, N.Y.) supplemented with 0.5% charcoal/dextran stripped fetal bovine serum (FBS), 0.1 mM non-essential amino acids (NEAA), and 1 mM sodium pyruvate. The assays were run in 384-well plates in serum-free OptiMEM medium using 300,000 cells per well. In a second assay approach, BEAS-2B human bronchial epithelial cells obtained from ATCC were plated at 100,000 cells per well of a 96-well plate one day prior to the experiment. The BEAS-2B assay was run in complete growth medium (bronchial epithelial basal medium plus bulletkit; Lonza; Basel, Switzerland).
Test compounds were serially diluted 1:2 in DMSO and then diluted 1:50 in medium just before use. Diluted compounds were added to the cells, for a final DMSO concentration of 0.2%, and incubated for 30 mi (for the TF-1 assay) or 1 hr (for the BEAS-2B assay) at 37 QC. Then, cells were stimulated with human recombinant cytokine at their respective EC90 concentrations, as previously determined for each individual lot. Cells were stimulated with IL-13 (R&D Systems, Minneapolis, Minn.) for 15 min at 37 °C. The TF-1 cell reactions were stopped by the direct addition of 10× lysis buffer (Cell Signaling Technologies, Danvers, Mass.), whereas the BEAS-2B cell incubations were halted by the removal of medium and addition of 1× lysis buffer. The resultant samples were frozen in the plates at −80 °C. Compound mediated inhibition of STAT6 phosphorylation was measured in the cell lysates using MesoScale Discovery (MSD) technology (Gaithersburg, Md.). EC50 values were determined as the concentration of compound required for 50% inhibition of STAT phosphorylation relative to that measured for the DMSO control.

Experiment [2] addresses T1, isolated recombinant JAK2 kinase domain (Homo sapiens, UniProt O60674).
T1 construct: isolated recombinant JAK1 and JAK2 kinase domain
Briefly: JAK enzyme assay, JAK2 kinase domain (Caliper LabChip). The experiment is classed as biochemical. Particulars: 0.2 nM JAK2, ATP 25 μM, Morrison tight binding model. The method, then:
(§1) JAK Enzyme Assays were Carried Out as Follows:
(§2) The activity of the isolated recombinant JAK1 and JAK2 kinase domain was measured by monitoring phosphorylation of a peptide derived from JAK3 (Val-Ala-Leu-Val-Asp-Gly-Tyr-Phe-Arg-Leu-Thr-Thr, fluorescently labeled on the N-terminus with 5-carboxyfluorescein) using the Caliper LabChip® technology (Caliper Life Sciences, Hopkinton, Mass.). […] Reactions were incubated at 22 °C in 384-well polypropylene microtiter plates for 30 minutes and then stopped by addition of 25 μL of an EDTA containing solution (100 mM HEPES buffer (pH 7.2), 0.015% Brij-35, 150 mM EDTA), resulting in a final EDTA concentration of 50 mM. After termination of the kinase reaction, the proportion of phosphorylated product was determined as a fraction of total peptide substrate using the Caliper LabChip® 3000 according to the manufacturer's specifications. Ki values were then determined using the Morrison tight binding model (Morrison, J. F., Biochim. Biophys. Acta. 185:269-296 (1969); William, J. W. and Morrison, J. F., Meth. Enzymol., 63:437-467 (1979)) modified for ATP-competitive inhibition [Ki=Ki,app/(1+[ATP]/Km,app)].

Experiment [3] addresses T2, isolated recombinant JAK1 kinase domain (Homo sapiens, UniProt P23458).
T2 construct: isolated recombinant JAK1 and JAK2 kinase domain
Briefly: JAK enzyme assay, JAK1 kinase domain (Caliper LabChip). In kind it is biochemical. Particulars: 1.5 nM JAK1, ATP 25 μM, Morrison tight binding model. The method, then:
as §1, §2

Results on 17 compounds are retold here after patent US20230242530A1, “8-(AZETIDIN-1-YL)-[1,2,4]TRIAZOLO[1,5-A]PYRIDINYL COMPOUNDS, COMPOSITIONS AND METHODS OF USE THEREOF” (Genentech, Inc., priority 2016, published 2023).

Each structure is given as a SMILES string. pEC50, pKi: −log10 of the molar value.

T1 sequence (O60674 849-1124 limits assumed): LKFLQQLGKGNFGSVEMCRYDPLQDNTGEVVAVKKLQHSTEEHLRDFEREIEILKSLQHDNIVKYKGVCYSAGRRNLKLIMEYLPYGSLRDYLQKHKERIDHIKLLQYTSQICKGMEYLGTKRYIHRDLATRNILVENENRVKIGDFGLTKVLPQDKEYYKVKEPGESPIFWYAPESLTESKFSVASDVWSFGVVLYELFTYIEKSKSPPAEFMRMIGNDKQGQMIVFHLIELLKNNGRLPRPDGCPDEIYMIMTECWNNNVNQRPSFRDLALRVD
T2 sequence (P23458 875-1153 limits assumed): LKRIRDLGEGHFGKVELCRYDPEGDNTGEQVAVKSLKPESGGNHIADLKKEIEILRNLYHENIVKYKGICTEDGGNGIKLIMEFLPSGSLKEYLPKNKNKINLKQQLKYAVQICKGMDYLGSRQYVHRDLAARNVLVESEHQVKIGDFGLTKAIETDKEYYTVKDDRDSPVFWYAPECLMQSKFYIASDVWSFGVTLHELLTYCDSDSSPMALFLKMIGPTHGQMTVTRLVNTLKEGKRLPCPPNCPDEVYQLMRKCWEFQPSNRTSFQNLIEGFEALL

By pEC50 is commonly meant the EC50 on a negative log10 scale, so that one unit is a factor of ten. One may read the pKi as the Ki on a negative log10 scale, so that one unit is a factor of ten. As to `CCc1cnn(C2(CC#N)CN(c3cccn4nc(Nc5ccc6c(c5)CCN([C@@H]5CCOC5)C6)nc34)C2)c1` (stereo in doubt) [Example 61, 2-[3-(4-ethylpyrazol-1-yl)-1-[2-[[2-[rac-(3R)-tetrahydrofuran-3-yl]-3,4-dihydro-1H-isoquinolin-6-yl]amino]-[1,2,4]triazolo[1,5-a]pyridin-8-yl]azetidin-3-yl]acetonitrile], the negative logarithm of the EC50 (pEC50) in experiment [1] was 8.10. For the same compound, the pKi in experiment [2] and in experiment [3] was 9.40 each time.
In turn, `CSc1cnn(C2(CC#N)CN(c3cccn4nc(Nc5cnn(CC(=O)N6CCN(C)CC6)c5)nc34)C2)c1` [Example 119] showed a pEC50 in experiment [1] of 7.80. Also, the results for the pKi in experiment [2] and in experiment [3] were 9.70 and 9.52, respectively.
The like results for `CSc1cnn(C2(CC#N)CN(c3cccn4nc(Nc5cnn(C)c5)nc34)C2)c1` [Example 147, 2-[1-[2-[(1-methylpyrazol-4-yl)amino]-[1,2,4]triazolo[1,5-a]pyridin-8-yl]-3-(4-methylsulfanylpyrazol-1-yl)azetidin-3-yl]acetonitrile] were, in that order, 8.00, 9.22 and 9.52.
In the same order, the values of `N#CCC1(n2cc(Br)cn2)CN(c2cccn3nc(Nc4cnn(CC(=O)N5CCN(C6CCOCC6)CC5)c4)nc23)C1` [Example 129, 2-[3-(4-bromopyrazol-1-yl)-1-[2-[[1-[2-oxo-2-(4-tetrahydropyran-4-ylpiperazin-1-yl)ethyl]pyrazol-4-yl]amino]-[1,2,4]triazolo[1,5-a]pyridin-8-yl]azetidin-3-yl]acetonitrile] are 7.31, 9.10 and 9.52.
The like results for `N#CCC1(c2cccc(Cl)c2)CN(c2cccn3nc(Nc4cnn(CC(=O)N5CCN(CCN6CCOCC6)CC5)c4)nc23)C1` [Example 82, 2-[3-(3-chlorophenyl)-1-[2-[[1-[2-[4-(2-morpholinoethyl)piperazin-1-yl]-2-oxo-ethyl]pyrazol-4-yl]amino]-[1,2,4]triazolo[1,5-a]pyridin-8-yl]azetidin-3-yl]acetonitrile] were, in that order, 7.66, 9.70 and 9.70.
Compound `CCc1cnn(C2(CC#N)CN(c3cccn4nc(Nc5cccc(C(=O)N6CCN(C)CC6)c5)nc34)C2)c1` [Example 75, 2-[3-(4-ethylpyrazol-1-yl)-1-[2-[3-(4-methylpiperazine-1-carbonyl)anilino]-[1,2,4]triazolo[1,5-a]pyridin-8-yl]azetidin-3-yl]acetonitrile] gave a pEC50 in experiment [1] of 7.59. The pKi in experiment [2] was 8.70; in experiment [3], 9.40.
The like results for `N#CCC1(n2cc(C(F)(F)F)cn2)CN(c2cccn3nc(Nc4cn[nH]c4)nc23)C1` [Example 131, 2-[1-[2-(1H-pyrazol-4-ylamino)-[1,2,4]triazolo[1,5-a]pyridin-8-yl]-3-[4-(trifluoromethyl)pyrazol-1-yl]azetidin-3-yl]acetonitrile] were, in that order, 7.37, 9.40 and 9.70.
In the same order, the values of `N#CCC1(n2cc(C3CC3)cn2)CN(c2cccn3nc(Nc4cn[nH]c4)nc23)C1` [Example 140, 2-[3-(4-cyclopropylpyrazol-1-yl)-1-[2-(1H-pyrazol-4-ylamino)-[1,2,4]triazolo[1,5-a]pyridin-8-yl]azetidin-3-yl]acetonitrile] are 7.96, 9.70 and 10.00.
In experiment [1], `CCc1cnn(C2(CC#N)CN(c3cccn4nc(Nc5ccc(C(=O)NCCN6CCOCC6)cc5)nc34)C2)c1` [Example 66, 4-[[8-[3-(cyanomethyl)-3-(4-ethylpyrazol-1-yl)azetidin-1-yl]-[1,2,4]triazolo[1,5-a]pyridin-2-yl]amino]-N-(2-morpholinoethyl)benzamide] had a negative-log EC50 (pEC50) of 7.51. The values for the negative-log Ki (pKi) in experiment [2] and in experiment [3] were 9.30 and 9.52, respectively.
For `CN1CCN(C(=O)c2cc(Nc3nc4c(N5CC(CC#N)(n6cc(C(F)(F)F)cn6)C5)cccn4n3)ccn2)CC1` [Example 111, 2-[1-[2-[[2-(4-methylpiperazine-1-carbonyl)-4-pyridyl]amino]-[1,2,4]triazolo[1,5-a]pyridin-8-yl]-3-[4-(trifluoromethyl)pyrazol-1-yl]azetidin-3-yl]acetonitrile], the pEC50 in experiment [1] is 7.41. Also, the values for the pKi in experiment [2] and in experiment [3] were 9.40 and 9.15, respectively.
The like results for `N#CCC1(c2cccc(Cl)c2)CN(c2cccn3nc(Nc4cnn(CC(=O)N5CCC(NC6COC6)CC5)c4)nc23)C1` [Example 93, 2-[3-(3-chlorophenyl)-1-[2-[[1-[2-[4-(oxetan-3-ylamino)-1-piperidyl]-2-oxo-ethyl]pyrazol-4-yl]amino]-[1,2,4]triazolo[1,5-a]pyridin-8-yl]azetidin-3-yl]acetonitrile] were, in that order, 7.10, 9.15 and 9.40.
In experiment [1], `CN(CC1(C#N)CC1)C1CCN(C(=O)Cn2cc(Nc3nc4c(N5CC(CC#N)(c6cccc(Cl)c6)C5)cccn4n3)cn2)CC1` [Example 100, 1-[[[1-[2-[4-[[8-[3-(3-chlorophenyl)-3-(cyanomethyl)azetidin-1-yl]-[1,2,4]triazolo[1,5-a]pyridin-2-yl]amino]pyrazol-1-yl]acetyl]-4-piperidyl]-methyl-amino]methyl]cyclopropane carbonitrile] showed a pEC50 of 7.59. Further, the negative logarithm of the Ki (pKi) was 8.82 in experiment [2] and 9.52 in experiment [3].
The like results for `CCN1CCN(C(=O)Cn2cc(Nc3nc4c(N5CC(CC#N)(c6cccc(SC)c6)C5)cccn4n3)cn2)CC1` [Example 80] were, in that order, 7.29, 9.10 and 9.30.
The like results for `CCc1cnn(C2(CC#N)CN(c3cccn4nc(Nc5cnn(CC(=O)N6CCN(C7CCOCC7)CC6)c5)nc34)C2)c1` [Example 31, 2-[3-(4-ethylpyrazol-1-yl)-1-[2-[[1-[2-oxo-2-(4-tetrahydropyran-4-ylpiperazin-1-yl)ethyl]pyrazol-4-yl]amino]-[1,2,4]triazolo[1,5-a]pyridin-8-yl]azetidin-3-yl]acetonitrile] were, in that order, 7.72, 8.96 and 9.40.
For `N#CCC1(n2cc(Br)cn2)CN(c2cccn3nc(Nc4cn[nH]c4)nc23)C1` [Example 128, 2-[3-(4-bromopyrazol-1-yl)-1-[2-(1H-pyrazol-4-ylamino)-[1,2,4]triazolo[1,5-a]pyridin-8-yl]azetidin-3-yl]acetonitrile], the negative-log EC50 (pEC50) in experiment [1] is 8.10. For the same compound, the pKi in experiment [2] and in experiment [3] was 9.70 each time.
In experiment [1], `Cc1ccccc1-c1cnn(C2(CC#N)CN(c3cccn4nc(Nc5cnn(CC(=O)N6CCN(C)CC6)c5)nc34)C2)c1` [Example 63] gave a negative logarithm of the EC50 (pEC50) of 7.89. Besides, the negative logarithm of the Ki (pKi) in experiment [2] and in experiment [3] was 9.70 each time.
Compound `Cn1cc(Nc2nc3c(N4CC(CC#N)(n5cc(Br)cn5)C4)cccn3n2)cn1` [Example 132, 2-[3-(4-bromopyrazol-1-yl)-1-[2-[(l-methylpyrazol-4-yl)amino]-[1,2,4]triazolo[1,5-a]pyridin-8-yl]azetidin-3-yl]acetonitrile] gave a negative-log EC50 (pEC50) in experiment [1] of 7.29. The results for the negative-log Ki (pKi) in experiment [2] and in experiment [3] were 9.30 and 9.52, respectively.
